{
  "source": "patent US20230313199A1",
  "about": "“TARGET FOR MODULATING BODY MASS” (Massachusetts Institute of Technology, priority 2020, published 2023)",
  "key": {"[1]": {"biological_target": "T1, MFSD7C and SERCA2b (Mus musculus, UniProt Q91X85)", "T1 construct": "expressed in transfected cells; called 293T", "T1 sequence (Q91X85 whole entry)": "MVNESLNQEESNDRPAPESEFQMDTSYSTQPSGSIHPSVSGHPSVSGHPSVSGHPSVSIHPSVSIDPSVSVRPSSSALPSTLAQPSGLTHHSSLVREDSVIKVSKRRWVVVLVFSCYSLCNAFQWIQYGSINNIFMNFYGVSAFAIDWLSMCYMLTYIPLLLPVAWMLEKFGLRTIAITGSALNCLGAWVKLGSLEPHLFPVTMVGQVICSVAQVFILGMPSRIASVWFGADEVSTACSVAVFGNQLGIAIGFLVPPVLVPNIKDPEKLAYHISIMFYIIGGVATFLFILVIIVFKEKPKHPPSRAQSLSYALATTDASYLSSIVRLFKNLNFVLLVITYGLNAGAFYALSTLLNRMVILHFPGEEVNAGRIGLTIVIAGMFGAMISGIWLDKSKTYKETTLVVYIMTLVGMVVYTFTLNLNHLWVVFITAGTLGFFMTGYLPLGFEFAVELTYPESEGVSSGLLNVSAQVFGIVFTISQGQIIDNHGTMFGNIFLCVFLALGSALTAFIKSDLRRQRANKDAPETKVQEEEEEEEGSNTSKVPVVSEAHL", "experiment": "Co-IP of MFSD7C and SERCA2b in transfected 293T cells", "type": "cell-based, murine", "conditions": "293T cells in the presence of MG132, heme for one hour", "procedure": "FIGS. 5A-5F show MFSD7C and heme regulate thermogenesis through SERCA2b in THP-1 cells. […] 30 hours later, MG132 was added into half of the cells and the other half was not treated. Another 35 hours later, some cells were treated with 40 μM heme for 1 hour before lysis. Cell lysates were immunoprecipitated with anti-FLAG antibody, and eluted, followed by anti-HA immunoprecipitation and elution. Total cell lysate and elute were subjected to Western blotting and probed with anti-SERCA2b or anti-MFSD7C antibodies. Shown are representative data from one of three experiments. […] 24 hrs later, cells were either not treated or treated with 10 μM MG132 for either 6 or 12 hours. The cells were lysed and subjected to FLAG pull-down and blotted with anti-MFSD7C, anti-SERCA2b and anti-ubiquitin antibodies. Shown are representative data from one of three experiments. […] Parental THP-1 cells were either not treated or treated with heme before lysis. Shown are representative data from one of four experiments. […] Shown are representative data from one of two experiments. […] Cells were washed and treated with 40 μM heme for one hour before flow cytometry. Representative FPT histograms from one of three experiments are shown. […] Shown are representative FPT histograms from one of three experiments. […]"}, "[2]": {"test_system": "THP-1 cells", "experiment": "Cellular energy charge (ATP/ADP ratio)", "type": "cell-based, human", "conditions": "heme 1 hour, reduced to similar levels as in 7CKO cells", "procedure": "Measurement of cellular energy charge (ATP/ADP ratio). ATP/ADP ratio was measured using ADP Assay Kit (Sigma Catalog No. MAK133-1KT) following manufacturer's protocol. For THP-1 cells, 24 hours before the experiment, cells were resuspended in fresh complete RPMI media. For heme treatment, 1 mL of treated cell suspension was incubated for 1 hour at 37° C. cell culture incubator, then centrifuged and resuspended in 1 mL of fresh warm complete RPMI media in order to wash off excess heme, which interferes with the assays. […] per well (approximately 10,000 cells total) was placed in a white 96-well plate, lysed with 90 μL of ATP Buffer, and incubated with gentle shaking at room temperature for 10 min. Relative ATP amount was directly measured using luminescence. Then, 5 μL of ADP Enzyme mix was added to each well and the plate was incubated with light shaking for 3 minutes. Relative amount of ADP+ATP was measured using luminescence. ADP amount was calculated by subtracting the ATP signal from ADP+ATP signal. To get ATP/ADP ratio, ATP signal was divided by the calculated ADP signal. For BMDMs, the assay was performed following the same protocol but using 20,000 cells per well."}, "[3]": {"biological_target": "T2, interaction between HMOX1 and MFSD7C (Mus musculus, UniProt Q91X85)", "T2 construct": "expressed in transfected cells; host or cells: 293FT cells", "T2 sequence (Q91X85 whole entry)": "as above", "T2 sequence (P14901 whole entry partner)": "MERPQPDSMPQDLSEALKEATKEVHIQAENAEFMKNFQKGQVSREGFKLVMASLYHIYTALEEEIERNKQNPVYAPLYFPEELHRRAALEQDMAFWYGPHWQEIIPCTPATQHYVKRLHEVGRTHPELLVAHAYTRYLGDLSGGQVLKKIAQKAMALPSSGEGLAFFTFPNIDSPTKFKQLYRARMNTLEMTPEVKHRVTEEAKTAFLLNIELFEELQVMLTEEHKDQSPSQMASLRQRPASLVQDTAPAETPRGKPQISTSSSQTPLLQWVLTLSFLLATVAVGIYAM", "experiment": "Co-IP of HA-tagged MFSD7C with FLAG-tagged HMOX1 in transfected 293FT cells", "type": "cell-based, murine", "conditions": "10 μM or 40 μM heme for one hour before cell lysis", "procedure": "Co-transfection and immunoprecipitation. For co-IP, HA-tagged MFSD7C was co-transfected with FLAG-tagged HMOX1 (Origene Catalog No. MR203944), CYC1, COX4I1, NDUFA4, ATP5h, ATP5c1 into 293FT cells using TransIT®-LT1 Transfection Reagent (Mirus). Thirty-six hours after transfection, the cells were lysed using cold Lysis Buffer containing 20 mM Tris-HCl (pH 7.4), 150 mM NaCl, 0.1% NP-40, 10% glycerol, proteinase inhibitor (Sigma Catalog No. 4693132001), and phosphatase inhibitors (Sigma Catalog No. 4906845001). The clear supernatants from the lysate were incubated with M2-magnetic beads conjugated with anti-FLAG antibody (Sigma Catalog No. M8823) for 2 hours at 4° C. Then the beads were washed twice and eluted by the 3× FLAG peptides (Sigma Catalog No. F4799).\nTo determine the effect of heme on MFSD7C interactions with ETC components, HMOX1 or SERCA2b, 293FT cells were transiently transfected with HA-tagged murine MFSD7C and FLAG-tagged murine CYC1, NDUFA4, COX4i1, ATP5h, ATP5c1, HMOX1 or SERCA2b. 35 hrs later, co-transfected cells were incubated with DMSO (vehicle) or 10 μM or 40 μM of heme for one hour before lysis. Cell lysates were precipitated with anti-HA antibody, eluted with HA peptide, further precipitated with anti-FLAG antibody, eluted with FLAG peptide, and then subjected to Western blotting with anti-HA and anti-FLAG antibodies. […]"}, "[4]": {"test_system": "293T cells", "experiment": "Oxygen consumption rate, parental 293T cells", "type": "cell-based, human", "conditions": "40 μM heme for 1 hour"}, "[5]": {"biological_target": "T3, HP motif peptide (Homo sapiens, UniProt Q9UPI3)", "T3 construct": "a synthetic 14-amino acid HP motif peptide; made in house; host or cells: chemical solid-phase synthesis (Koch Institute Biopolymers & Proteomics Core)", "experiment": "Isothermal titration calorimetry of HP motif peptide binding to heme (one-site model)"}},
  "data": [
    {"compound": "C=CC1=C(C)c2cc3[n-]c(cc4[n-]c(cc5nc(cc1n2)C(C)=C5C=C)c(C)c4CCC(=O)O)c(CCC(=O)O)c3C.[Fe+2]", "note": "[heme]", "values": [
      {"measurement": "co-IP of SERCA2b with MFSD7C", "setting": "[1]", "value": "abolished"},
      {"measurement": "ATP/ADP ratio", "setting": "[2]", "value": "reduced"},
      {"measurement": "interaction between HMOX1 and MFSD7C (co-IP)", "setting": "[3]", "value": "enhanced"},
      {"measurement": "OCR", "setting": "[4]", "value": "significantly stimulated"},
      {"measurement": "binding stoichiometry heme : HP motif peptide", "setting": "[5]", "value": "one heme bound to one HP motif peptide"}
    ]}
  ]
}
